The experiment has as its system P388 leukemia ip, CD2F1 mice, survival T/C. Kind of experiment: NCI In Vivo Anticancer Drug Screen. Data for tumor model P388 Leukemia (intraperitoneal) in CD2F1 (CDF1) mice. Conditions: endpoint: median survival time, higher = longer survival. The method, boiled down:
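Mice carrying the transplanted tumor received test compound or vehicle. Survival was recorded in each group, and the value is the treated-group measurement divided by that of the vehicle-treated control group.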

The mark [1] stands for this setting: dose: 100.0 mg/kg/injection, schedule: Q04DX003 (ip), vehicle: saline with Tween-80.
Where [2] appears, read: dose: 50.0 mg/kg/injection, schedule: Q01DX009 (ip), vehicle: saline with Tween-80.
The mark [3] stands for this setting: dose: 100.0 mg/kg/injection, schedule: Q01DX009 (ip), vehicle: saline with Tween-80.
Where [4] appears, read: dose: 200.0 mg/kg/injection, schedule: Q01DX009 (ip), vehicle: saline with Tween-80.
Where [5] appears, read: dose: 12.5 mg/kg/injection, schedule: Q01DX009 (ip), vehicle: saline with Tween-80.
Where [6] appears, read: dose: 25.0 mg/kg/injection, schedule: Q01DX009 (ip), vehicle: saline with Tween-80.
Where [7] appears, read: dose: 50.0 mg/kg/injection, schedule: Q01DX009 (ip), vehicle: Klucel (hydroxypropylcellulose) (HPC).
Where [8] appears, read: dose: 12.5 mg/kg/injection, schedule: Q01DX009 (ip), vehicle: Klucel (hydroxypropylcellulose) (HPC).
Setting [9] is: dose: 25.0 mg/kg/injection, schedule: Q01DX009 (ip), vehicle: Klucel (hydroxypropylcellulose) (HPC).
Where [10] appears, read: dose: 60.0 mg/kg/injection, schedule: Q01DX005 (ip), vehicle: saline with Tween-80.
Setting [11] is: dose: 120.0 mg/kg/injection, schedule: Q01DX005 (ip), vehicle: saline with Tween-80.
Where [12] appears, read: dose: 240.0 mg/kg/injection, schedule: Q01DX005 (ip), vehicle: saline with Tween-80.
Where [13] appears, read: dose: 50.0 mg/kg/injection, schedule: Q01DX005 (ip), vehicle: Klucel (hydroxypropylcellulose) (HPC).
Setting [14] is: dose: 100.0 mg/kg/injection, schedule: Q01DX005 (ip), vehicle: Klucel (hydroxypropylcellulose) (HPC).
Setting [15] is: dose: 200.0 mg/kg/injection, schedule: Q01DX005 (ip), vehicle: Klucel (hydroxypropylcellulose) (HPC).
The mark [16] stands for this setting: dose: 12.5 mg/kg/injection, schedule: Q01DX009 (ip), vehicle: saline.
The mark [17] stands for this setting: dose: 25.0 mg/kg/injection, schedule: Q01DX009 (ip), vehicle: saline.
Setting [18] is: dose: 50.0 mg/kg/injection, schedule: Q01DX009 (ip), vehicle: saline.
Where [19] appears, read: dose: 100.0 mg/kg/injection, schedule: Q01DX009 (ip), vehicle: saline.
The mark [20] stands for this setting: dose: 200.0 mg/kg/injection, schedule: Q01DX009 (ip), vehicle: saline.
Where [21] appears, read: dose: 50.0 mg/kg/injection, schedule: Q01DX005 (ip), vehicle: saline with Tween-80.
[22] abbreviates: dose: 100.0 mg/kg/injection, schedule: Q01DX005 (ip), vehicle: saline with Tween-80.
[23] abbreviates: dose: 200.0 mg/kg/injection, schedule: Q01DX005 (ip), vehicle: saline with Tween-80.

“And” between values parts separate entries of the source, which are not always exact repeats. Identical values can stand only once. Toxic doses and inconclusive results are not listed.

Consider `COc1cc2cnc(-c3ccccc3)cc2cc1OC`, for which the T/C is 101 % of control (dose: 100.0 mg/kg/injection, schedule: Q04DX003 (ip), vehicle: suspension in saline); 93 % of control (dose: 200.0 mg/kg/injection, schedule: Q04DX003 (ip), vehicle: suspension in saline); 93 % of control (dose: 400.0 mg/kg/injection, schedule: Q04DX003 (ip), vehicle: suspension in saline).
Consider `O=c1oc2c(c(N(c3ccccc3)c3ccccc3)c1Cl)CSc1ccccc1-2`, for which the T/C under setting [1] is 90 % of control.
Consider `FC(F)C(F)(F)C(F)(F)C(F)(F)COCC1(COCC(F)(F)C(F)(F)C(F)(F)C(F)F)COC1`, for which the T/C was 100 % of control under setting [2], 106 % of control under setting [3] and 109 % of control under setting [4].
Turning to `N#Cc1nccnc1C#N`, the T/C is, setting by setting: under setting [5], 86 % of control; under setting [6], 105 % of control; under setting [7], 102 % of control; under setting [2], 101 % of control.
As to `CN(C)c1ccc(/C=[N+](\[O-])C(C)(C)CO)cc1`, the T/C by setting is: (dose: 6.25 mg/kg/injection, schedule: Q01DX009 (ip), vehicle: saline with Tween-80) 100 % of control; under setting [5], 102 % of control; under setting [6], 100 % of control; under setting [3], 96 % of control; under setting [4], 97 % of control.
For the compound `O=P(c1ccccc1)(c1ccccc1)c1ccccc1.O=P(c1ccccc1)(c1ccccc1)c1ccccc1.O=S(=O)(O)O.[Ni]`, the T/C was 99 % of control (dose: 6.25 mg/kg/injection, schedule: Q01DX009 (ip), vehicle: Klucel (hydroxypropylcellulose) (HPC)); 111 % of control under setting [8]; 107 % of control under setting [9].
In the case of `CC(=O)Nc1ccc2nc(/C=C/c3ccc(N(C)C)cc3)c(=O)oc2c1`, the T/C under setting [10] is 102 % of control, the T/C under setting [11] was 96 % of control and the T/C under setting [12] is 91 % of control.
As to `C=C1C(=O)OC2/C=C(\C)CC/C=C(\C)C(OC(C)=O)C(OC(=O)C3(C)OC3C)C12O` (stereo not given), the T/C runs as follows: under setting [8], 105 % of control; under setting [9], 115 % of control; under setting [7], 115 % of control; (dose: 100.0 mg/kg/injection, schedule: Q01DX009 (ip), vehicle: Klucel (hydroxypropylcellulose) (HPC)) 94 % of control.
Turning to `Cc1ccc(NC(=O)CCCC(=O)C(C#N)c2ccccc2C)cc1C` (stereo not given), the T/C runs as follows: under setting [10], 113 % of control; under setting [11], 103 % of control; under setting [12], 102 % of control.
With `CCC(C)CN1CCc2c3c(c(OC)c(OC)c2C1)CCC3` (stereo not given), the T/C is 101 % of control (dose: 100.0 mg/kg/injection, schedule: Q04DX002 (ip), vehicle: saline) and 101 % of control (dose: 200.0 mg/kg/injection, schedule: Q04DX002 (ip), vehicle: saline).
Turning to `CCOC(=O)C(Cc1ccc(N(CCCl)CCCl)cc1)NC(=O)C(Cc1ccc([N+](=O)[O-])cc1)NC(C)=O` (stereo not given), the T/C was 91 % of control (dose: 5.0 mg/kg/injection, schedule: Q04DX003 (ip), vehicle: water); 91 % of control (dose: 10.0 mg/kg/injection, schedule: Q04DX003 (ip), vehicle: water); 90 % of control (dose: 20.0 mg/kg/injection, schedule: Q04DX003 (ip), vehicle: water); 88 % of control (dose: 40.0 mg/kg/injection, schedule: Q04DX003 (ip), vehicle: other); 98 % of control (dose: 40.0 mg/kg/injection, schedule: Q04DX003 (ip), vehicle: water); 91 % of control (dose: 80.0 mg/kg/injection, schedule: Q04DX003 (ip), vehicle: other). Also, the T/C was 90 % of control (dose: 100.0 mg/kg/injection, schedule: Q04DX003 (ip), vehicle: other); 94 % of control (dose: 160.0 mg/kg/injection, schedule: Q04DX003 (ip), vehicle: other); 102 % of control (dose: 200.0 mg/kg/injection, schedule: Q04DX003 (ip), vehicle: other); 112 % of control (dose: 400.0 mg/kg/injection, schedule: Q04DX003 (ip), vehicle: other).
As for `COC(=O)c1csccc1=O`, the T/C under setting [13] was 112 % of control, the T/C under setting [14] was 97 % of control and the T/C under setting [15] was 95 % of control.
For the compound `C/C(=N/NC(N)=O)c1cccc(/C(C)=N/NC(N)=O)n1.[Cl][Zn][Cl]`, the T/C runs as follows: (dose: 6.25 mg/kg/injection, schedule: Q01DX009 (ip), vehicle: saline) 103 % of control; under setting [16], 102 % of control; under setting [17], 105 % of control.
Take `CCOC(=O)/C=C/c1c[nH]c(=O)[nH]c1=O`: the T/C is 100 % of control (dose: 12.5 mg/kg/injection, schedule: Q01DX009 (ip), vehicle: distilled water + Tween-80); 96 % of control (dose: 25.0 mg/kg/injection, schedule: Q01DX009 (ip), vehicle: distilled water + Tween-80); 92 % of control (dose: 50.0 mg/kg/injection, schedule: Q01DX009 (ip), vehicle: distilled water + Tween-80); 88 % of control (dose: 100.0 mg/kg/injection, schedule: Q01DX009 (ip), vehicle: distilled water + Tween-80).
For the compound `C1CN2CCN1CC2`, the T/C was 99 % of control and 105 % of control under setting [18]; 94 % of control and 108 % of control under setting [19]; 103 % of control and 99 % of control under setting [20].
On to `COc1ccc(C(OC)c2cc(C(C)(C)C)c(O)c(C(C)(C)C)c2)cc1` (stereo not given), for which the T/C is 102 % of control under setting [21], 109 % of control under setting [22] and 112 % of control under setting [23].
As to `COC(=O)c1[nH]c(=O)c(C#N)c(C(=O)OC)c1-c1ccccn1`, the T/C is, setting by setting: under setting [10], 93 % of control; under setting [11], 92 % of control; under setting [12], 92 % of control.
In the case of `CN(C)c1ccc(NN=O)nc1`, the T/C (dose: 1.56 mg/kg/injection, schedule: Q01DX009 (ip), vehicle: water) was 122 % of control; the T/C (dose: 6.25 mg/kg/injection, schedule: Q01DX009 (ip), vehicle: water) was 150 % of control; the T/C (dose: 12.5 mg/kg/injection, schedule: Q01DX009 (ip), vehicle: water) is 110 % of control.
Take `Cn1nnc(-c2cccc(F)c2)n1`: the T/C is 105 % of control (dose: 25.0 mg/kg/injection, schedule: Q01DX005 (ip), vehicle: Klucel (hydroxypropylcellulose) (HPC)); 91 % of control and 96 % of control under setting [13]; 93 % of control under setting [14]; 91 % of control under setting [15].
With `BrC1C2CCC3OC3CCC12` (stereo not given), the T/C was 101 % of control under setting [1]; 92 % of control (dose: 200.0 mg/kg/injection, schedule: Q04DX003 (ip), vehicle: saline with Tween-80); 97 % of control (dose: 400.0 mg/kg/injection, schedule: Q04DX003 (ip), vehicle: saline with Tween-80).
As to `COCC1OC(OC2OCC3OC4(OCC(O)(C(C)OC)C5OCOC54)OC3C2OC)C(OC)C(O)C1OC1OC(C)C(OC)C(OC2OC(C)C3OC4(CC(O)C(OC5CC(OC6CC(C)([N+](=O)[O-])C(OC)C(C)O6)C(OC(=O)c6c(C)c(Cl)c(O)c(Cl)c6OC)C(C)O5)C(C)O4)OC3(C)C2O)C1O` (stereo not given), the T/C was 118 % of control under setting [16], 103 % of control under setting [17], 98 % of control under setting [18] and 105 % of control under setting [19].
Consider `C#CC(C)OC` (stereo not given), for which the T/C is 96 % of control under setting [18], 90 % of control under setting [19] and 86 % of control under setting [20].
As for `CCN(CC)C(=O)c1cc2c(=O)c3c(ccc4ccccc43)oc2n(C)c1=O`, the T/C under setting [21] was 98 % of control, the T/C under setting [22] is 90 % of control and the T/C under setting [23] is 90 % of control.
